From US20110190235A1, “BORON-CONTAINING SMALL MOLECULES AS ANTIPROTOZOAL AGENTS” (Anacor Pharmaceuticals, Inc., priority 2009, published 2011) come the findings set out here.

Data set [1] can be described thus: L929 cytotoxicity evaluation (resazurin). The data set is classed as cell-based. As to conditions: mouse, L929 mouse fibroblast cells; 72 hrs incubation; read-out: Cytotox L-929 IC50. The method, boiled down: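 Mouse L929 fibroblasts (1×10^4/mL seeding, attached overnight) were treated 72 h at 37 °C, 5% CO2 with serially diluted compounds in DMSO in D-MEM/10% FBS. Viability read by resazurin fluorescence after 3–4 h (ex 544/em 590 nm); IC50 from sigmoidal fits of single data points.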
In general terms: The colour change of resazurin is a common sign of viable cells or microbes.

Data set [2] deals with bloodstream-form trypanosome T. brucei brucei 427 strain. In words: Trypanosoma brucei brucei high-throughput in vitro drug sensitivity assay (resazurin). It counts as cell-based. As to conditions: for Selectivity Index (L929 IC50 / T. b. brucei IC50): T. b. brucei vs L929; for IC50: Trypanosoma brucei.
Data set [3] is described as follows: Kinetic solubility by nephelometric (light scattering) method. The data set is classed as physicochemical. As to conditions: phosphate buffered saline, aqueous buffer, kinetic from dmso stock, PBS pH 7.4. As to the method:
The kinetic solubilities of compounds were estimated using a nephelometric (light scattering) method. Briefly, compounds were serially diluted in DMSO, followed by dilution in PBS pH 7.4. After incubation, the amount of light scattered by a compound at each concentration was measured. […] At concentrations above the solubility limit, the compound precipitates and the precipitant in the well scatters the light, generating a signal. Higher levels of precipitant in a well scatter more light and produce a stronger signal.
A stock solution of compound (25 mM in DMSO) was prepared, and was serially diluted in DMSO in two-fold increments in a row of a 96 well plate to a lowest concentration of 24 μM. A duplicate plate was prepared by transfer of half of the volume of each well to a new plate. Each well containing DMSO solution of the test compound was then diluted further (1:100) with phosphate buffered saline (pH 7.4) to provide aqueous solutions of compound at the following final concentrations: 250, 125, 62.5, 31.3, 15.6, 7.8, 3.9, 2.0, 1.0, 0.5 and 0.2 μM. All liquid handling stages were performed on a Beckman Coulter Biomek NX Laboratory Automation Workstation. Each compound was diluted and tested in duplicate, providing four separate wells at each test concentration.
The test solutions of compound were incubated at room temperature for 90 minutes and then analyzed using a Thermoskan Ascent nephelometric plate reader. The nephelometer protocol included two steps: first, the plate was shaken for 60 seconds at 1200 rpm, then each well of the plate was read in succession with an 800 ms settling delay between measurements. The total measurement time for a single plate was less than 4 minutes.
The four values (in nephelometric units) obtained for each compound at each concentration were averaged and plotted on a log scale versus concentration.

Setting [4] is: 72 hrs incubation, read-out: T. b. brucei IC50.
Where [5] appears, read: 72 hrs incubation, read-out: T.b. brucei IC50.
The mark [6] stands for this setting: 72 h, read-out: T.b. brucei IC50 (ug/mL).

Structures are written as SMILES. Converted amounts (≈) assume the structure as drawn. Read-outs that look alike come from different tables or passages of the source.

With `CC(C)CC1OB(O)c2cc(NC(=O)c3ccc(F)cc3C(F)(F)F)ccc21` (stereo not shown) [compound 23, 4-Fluoro-N-(1-hydroxy-3-isobutyl-1,3-dihydro-benzo[c][1,2]oxaborol-6-yl)-2-trifluoromethyl-benzamide], in data set [1], the IC50 at 72 h is more than 10 µg/mL. In addition, the “Selectivity Index (L929 IC50 / T. b. brucei IC50)” value in data set [2] is listed as more than 4. Besides, the IC50 in data set [2] (setting [4]) was 6100 nM; in data set [2] (setting [5]) it was 2.41 µg/mL. Besides, in data set [3], the solubility (commonly how much of the substance goes into solution per volume) at 90 min stood at 25 µM (≈ 9.88 µg/mL).
Regarding `O=C(Nc1ccc2c(c1)B(O)OC21CCC1)c1ccc(F)cc1C(F)(F)F` [compound 134], the IC50 at 72 h in data set [1] is more than 10 µg/mL. In addition, the “Selectivity Index (L929 IC50 / T. b. brucei IC50)” value in data set [2] is listed as more than 30. Further, the IC50 was 892 nM in data set [2] (72 h, read-out: T. b. brucei IC50 (nM)) and 0.338 µg/mL in data set [2] (setting [6]). Besides, in data set [3], the concentration in solution (solubility at 90 min) was 100 µM (≈ 37.9 µg/mL).
In the case of `CC1(C)OB(O)c2cc(NC(=O)c3ccccn3)ccc21` [compound 114, Pyridine-2-carboxylic acid (1-hydroxy-3,3-dimethyl-1,3-dihydro-benzo[c][1,2]oxaborol-6-yl)-amide], the IC50 at 72 h in data set [1] was more than 10 µg/mL. In addition, the IC50 in data set [2] (setting [5]) is more than 5 µg/mL. The compound further yielded a solubility at 90 min in data set [3] of 100 µM (≈ 28.2 µg/mL).
Take `CC1(C)OB(O)c2cc(NC(=O)c3ccc(Cl)cc3Cl)ccc21` [compound 65, 2,4-Dichloro-N-(1-hydroxy-3,3-dimethyl-1,3-dihydro-benzo[c][1,2]oxaborol-6-yl)-benzamide]: the IC50 at 72 h in data set [1] is more than 10 µg/mL. In data set [2] (setting [5]), the IC50 was found to be 0.278 µg/mL. In data set [3], this compound yielded a solubility at 90 min of 50 µM (≈ 17.5 µg/mL).
Turning to `O=C(Nc1ccc2c(c1)B(O)OC21CCCC1)c1ccc(F)cc1C(F)(F)F` [compound 136], the IC50 at 72 h in data set [1] is more than 10 µg/mL. For the same compound, the IC50 in data set [2] (setting [4]) is more than 12700 nM; in data set [2] (setting [5]) it was more than 5 µg/mL. The same compound showed a solubility at 90 min in data set [3] of 25 µM (≈ 9.83 µg/mL).
Regarding `CC1OB(O)c2cc(NC(=O)c3ccccc3F)ccc21` (stereo not shown) [compound 8, 2-Fluoro-N-(1-hydroxy-3-methyl-1,3-dihydro-benzo[c][1,2]oxaborol-6-yl)-benzamide], the IC50 at 72 h in data set [1] came out at 5.86 µg/mL (≈ 20.6 µM). Also, the “Selectivity Index (L929 IC50 / T. b. brucei IC50)” value in data set [2] worked out at 84. The IC50 in data set [2] (setting [4]) came to 246 nM; in data set [2] (setting [5]) it was 0.07 µg/mL. For the same compound, the concentration in solution in data set [3] (solubility at 90 min) came to 50 µM (≈ 14.3 µg/mL).
As to `O=C(Nc1ccc2c(c1)B(O)OC21CCC1)c1ccc(F)cc1Cl` [compound 135], the IC50 at 72 h in data set [1] was more than 10 µg/mL. Moreover, in data set [2], the “Selectivity Index (L929 IC50 / T. b. brucei IC50)” value is given as more than 58. The IC50 was determined as 498 nM in data set [2] (setting [4]) and 0.172 µg/mL in data set [2] (setting [5]). In addition, in data set [3], the concentration in solution (solubility at 90 min) was 25 µM (≈ 8.64 µg/mL).
`CC1OB(O)c2cc(NC(=O)c3ccc(Cl)cc3)ccc21` (stereo not shown) [compound 9, 4-Chloro-N-(1-hydroxy-3-methyl-1,3-dihydro-benzo[c][1,2]oxaborol-6-yl)-benzamide]: in data set [1], the IC50 at 72 h was more than 10 µg/mL. For the same compound, the “Selectivity Index (L929 IC50 / T. b. brucei IC50)” value in data set [2] is reported as more than 208. Besides, the IC50 is 159 nM in data set [2] (setting [4]) and 0.048 µg/mL in data set [2] (setting [5]). This compound yielded a solubility at 90 min in data set [3] of 25 µM (≈ 7.54 µg/mL).
On to `CC1(C)OB(O)c2cc(NC(=O)c3ccccc3)ccc21` [compound 26, N-(1-Hydroxy-3,3-dimethyl-1,3-dihydro-benzo[c][1,2]oxaborol-6-yl)-benzamide], for which the IC50 at 72 h in data set [1] is more than 10 µg/mL. Also, in data set [2] (setting [5]), the IC50 was more than 5 µg/mL. Moreover, in data set [3], the concentration in solution (solubility at 90 min) came to 200 µM (≈ 56.2 µg/mL).
Take `CC1OB(O)c2cc(NC(=O)c3ccc(F)cc3Cl)ccc21` (stereo not shown) [compound 13, 2-Chloro-4-fluoro-N-(1-hydroxy-3-methyl-1,3-dihydro-benzo[c][1,2]oxaborol-6-yl)-benzamide]: in data set [1], the IC50 at 72 h came out at 2 µg/mL (≈ 6.26 µM). The “Selectivity Index (L929 IC50 / T. b. brucei IC50)” value in data set [2] worked out at 47. Also, the IC50 in data set [2] (setting [4]) came out at 135 nM; in data set [2] (setting [5]), 0.043 µg/mL. Moreover, the solubility at 90 min in data set [3] is more than 200 µM.
`CC(C)c1ccc(C(=O)Nc2ccc3c(c2)B(O)OC3(C)C)c(Cl)c1` [compound 101, 2-Chloro-N-(1-hydroxy-3,3-dimethyl-1,3-dihydro-benzo[c][1,2]oxaborol-6-yl)-4-isopropyl-benzamide]: the IC50 at 72 h in data set [1] worked out at 8.43 µg/mL (≈ 23.6 µM). Moreover, in data set [2] (setting [6]), the IC50 is 0.05 µg/mL. The solubility at 90 min in data set [3] amounted to 25 µM (≈ 8.94 µg/mL).
Consider `CC1OB(O)c2cc(NC(=O)c3ccc(F)cc3F)ccc21` (stereo not shown) [compound 12, 2,4-Difluoro-N-(1-hydroxy-3-methyl-1,3-dihydro-benzo[c][1,2]oxaborol-6-yl)-benzamide], for which, in data set [1], the IC50 at 72 h was more than 10 µg/mL. For the same compound, the “Selectivity Index (L929 IC50 / T. b. brucei IC50)” value in data set [2] is given as more than 123. Further, the IC50 in data set [2] (setting [4]) is 267 nM; in data set [2] (setting [5]), 0.081 µg/mL. In addition, the concentration in solution in data set [3] (solubility at 90 min) was 100 µM (≈ 30.3 µg/mL).
Consider `CC1(C)OB(O)c2cc(NC(=O)c3ccccc3C(F)(F)F)ccc21` [compound 34, N-(1-Hydroxy-3,3-dimethyl-1,3-dihydro-benzo[c][1,2]oxaborol-6-yl)-2-trifluoromethyl-benzamide], for which the IC50 at 72 h in data set [1] was more than 10 µg/mL. In data set [2], the “Selectivity Index (L929 IC50 / T. b. brucei IC50)” value is listed as more than 94. The figures for the IC50 in data set [2] (setting [4]) and in data set [2] (setting [5]) were 304 nM and 0.106 µg/mL, respectively. For the same compound, the concentration in solution in data set [3] (solubility at 90 min) came to 50 µM (≈ 17.5 µg/mL).
On to `CC1(C)OB(O)c2cc(NC(=O)c3ccc(Br)cc3Cl)ccc21` [compound 76, 4-Bromo-2-chloro-N-(1-hydroxy-3,3-dimethyl-1,3-dihydro-benzo[c][1,2]oxaborol-6-yl)-benzamide], for which the IC50 at 72 h in data set [1] was more than 10 µg/mL. Further, the IC50 in data set [2] (setting [5]) amounted to 0.185 µg/mL. The solubility at 90 min in data set [3] stood at 25 µM (≈ 9.86 µg/mL).
With `O=C(Nc1ccc2c(c1)B(O)OC2C1CCCC1)c1ccc(F)cc1C(F)(F)F` (stereo not shown) [compound 19, N-(3-Cyclopentyl-1-hydroxy-1,3-dihydro-benzo[c][1,2]oxaborol-6-yl)-4-fluoro-2-trifluoromethyl-benzamide], in data set [1], the IC50 at 72 h is more than 10 µg/mL. In addition, the “Selectivity Index (L929 IC50 / T. b. brucei IC50)” value in data set [2] was more than 3. Moreover, the IC50 in data set [2] (setting [4]) amounted to 7810 nM; in data set [2] (setting [5]), 3.18 µg/mL. Besides, the concentration in solution in data set [3] (solubility at 90 min) came to 100 µM (≈ 40.7 µg/mL).
Turning to `CC1(C)OB(O)c2cc(NC(=O)c3ccccc3Br)ccc21` [compound 39, 2-Bromo-N-(1-hydroxy-3,3-dimethyl-1,3-dihydro-benzo[c][1,2]oxaborol-6-yl)-benzamide], the IC50 at 72 h in data set [1] is more than 10 µg/mL. Besides, the “Selectivity Index (L929 IC50 / T. b. brucei IC50)” value in data set [2] is given as more than 44. Moreover, the IC50 in data set [2] (setting [4]) was 631 nM; in data set [2] (setting [5]), 0.227 µg/mL. In data set [3], this compound came in with a solubility at 90 min of 50 µM (≈ 18 µg/mL).
Turning to `CC1OB(O)c2cc(NC(=O)c3ccccc3Br)ccc21` (stereo not shown) [compound 14, 2-Bromo-N-(1-hydroxy-3-methyl-1,3-dihydro-benzo[c][1,2]oxaborol-6-yl)-benzamide], the IC50 at 72 h in data set [1] was 1.67 µg/mL (≈ 4.83 µM). The “Selectivity Index (L929 IC50 / T. b. brucei IC50)” value in data set [2] is 39. In addition, the IC50 is 124 nM in data set [2] (setting [4]) and 0.043 µg/mL in data set [2] (setting [5]). The same compound yielded a solubility at 90 min in data set [3] of 100 µM (≈ 34.6 µg/mL).
Regarding `CC1(C)OB(O)c2cc(NC(=O)c3ccccc3Cl)ccc21` [compound 38, 2-Chloro-N-(1-hydroxy-3,3-dimethyl-1,3-dihydro-benzo[c][1,2]oxaborol-6-yl)-benzamide], the IC50 at 72 h in data set [1] is more than 10 µg/mL. In data set [2], the “Selectivity Index (L929 IC50 / T. b. brucei IC50)” value was more than 60. For the same compound, the IC50 came out at 532 nM in data set [2] (setting [4]) and 0.168 µg/mL in data set [2] (setting [5]). The compound further registered a solubility at 90 min in data set [3] of 13 µM (≈ 4.1 µg/mL).
